Reference: US20250206761A1, “HALOINDOLE MACROCYCLIC COMPOUNDS FOR THE TREATMENT OF CANCER” (Hoffmann-La Roche Inc., priority 2022, published 2025)

Key:
[1] = test system: NCI-H358 (ATCC-CRL5807) cells; assay: Cell viability assay, G12C (NCI-H358); format: cell-based, human; conditions: Homo sapiens; KRAS cell viability, NCI-H358, 72 hrs, Cell Counting Kit-8
Summary of the method: (§1)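 Read-out is CCK-8 absorbance (OD450 minus OD650, 2 hrs after reagent), reflecting NADPH after 72 hrs of compound exposure in 0.5% DMSO. Seeding density was 5,000 cells/well for NCI-H358 and 2,000 for AGS and SW620. IC50 derived by 4-parameter sigmoidal fitting.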

[2] = test system: AGS (ATCC-CRL-1739) cells; assay: Cell viability assay, G12D (AGS); format: cell-based, human; conditions: Homo sapiens, KRAS cell viability, 72 hrs, Cell Counting Kit-8
Summary of the method: as §1

SW620 (ATCC-CCL-227) = assay: Cell viability assay, G12V (SW620); format: cell-based, human; conditions: Homo sapiens, SW-620; KRAS cell viability, SW620, 72 hrs, Cell Counting Kit-8
Summary of the method: as §1

[3] = molecular target: KRAS G12D binding to BRAF (Homo sapiens (Human), UniProt P01116+P62937, G12D); assay: KRAS-BRAF with CYPA (500 nM) interaction assay (TR-FRET), G12D; format: biochemical
KRAS G12D binding to BRAF, sequence (P01116-2 other isoform, or with tags, fused parts or gaps G12D): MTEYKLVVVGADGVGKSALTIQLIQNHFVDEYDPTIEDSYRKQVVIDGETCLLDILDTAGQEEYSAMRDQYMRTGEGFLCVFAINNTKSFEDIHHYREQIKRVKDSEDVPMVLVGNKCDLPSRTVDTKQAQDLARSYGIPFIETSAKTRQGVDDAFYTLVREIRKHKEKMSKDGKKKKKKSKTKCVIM
KRAS G12D binding to BRAF, sequence (P62937 whole entry): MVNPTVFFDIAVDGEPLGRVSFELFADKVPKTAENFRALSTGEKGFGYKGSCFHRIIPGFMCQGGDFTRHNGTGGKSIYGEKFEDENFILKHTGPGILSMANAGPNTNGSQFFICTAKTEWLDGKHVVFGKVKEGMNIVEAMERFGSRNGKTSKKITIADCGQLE

[4] = test system: phosphorylation of ERK, KRAS G12C in NCJ-H358 cells; assay: pERK inhibition assay, KRAS G12C; format: cell-based, human; conditions: Homo sapiens, 4 hours
Summary of the method: (§2)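 Plate cells, attach overnight; add compound (0.5% DMSO) for 4 h; fix in 4% formaldehyde, permeabilize with chilled methanol; block; incubate pERK antibody overnight at 4 °C, then HRP secondary; develop with TMB, stop, read OD450; fit 4-parameter curve for IC50.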

[5] = test system: phosphorylation of ERK, KRAS G12V in SW620; assay: pERK inhibition assay, KRAS G12V; format: cell-based, human; conditions: Homo sapiens, SW-620, SW620, 4 hours
Summary of the method: as §2

Row | Compound | IC50 [1] [µM] | IC50 [2] [µM] | IC50 (SW620 (ATCC-CCL-227)) [µM] | IC50 [3] [µM] | IC50 [4] [µM] | IC50 [5] [µM]
1 | CCn1c(-c2cc(N3CCOCC3)cnc2[C@H](C)OC)c2c3cc(c(F)cc31)-c1csc(n1)C[C@H](NC(=O)[C@H](C(C)C)N(C)C(=O)C1(F)CCN(C(=O)[C@H](F)Cl)CC1)C(=O)N1CCC[C@H](N1)C(=O)OCC(C)(C)C2 (atropisomer, axis not shown; (M)) [Example 54, 1-[(2R)-2-chloro-2-fluoro-acetyl]-N-[(1S)-1-[[(7S,13S)-21-ethyl-24-fluoro-(20M)-20-[2-[(1S)-1-methoxyethyl]-5-morpholino-3-pyridyl]-17,17-dimethyl-8,14-dioxo-15-oxa-4-thia-9,21,27,28-tetrazapentacyclo[17.5.2.1^2,5.1^9,13.0^22,26]octacosa-1(25),2,5(28),19,22(26),23-hexaen-7-yl]carbamoyl]-2-methyl-propyl]-4-fluoro-N-methyl-piperidine-4-carboxamide] | < 0.001 | 0.072 | 0.013 | 0.303 | 0.002 | 0.015
2 | CCn1c(-c2cc(N3CCOCC3)cnc2[C@H](C)OC)c2c3cc(c(F)cc31)-c1csc(n1)C[C@H](NC(=O)[C@H](C(C)C)N(C)C(=O)[C@H]1CCN(C(=O)[C@H](F)Cl)C1)C(=O)N1CCC[C@H](N1)C(=O)OCC(C)(C)C2 (atropisomer, axis not shown; (M)) [Example 55, (3S)-1-[(2R)-2-chloro-2-fluoro-acetyl]-N-[(1S)-1-[[(7S,13S)-21-ethyl-24-fluoro-(20M)-20-[2-[(1S)-1-methoxyethyl]-5-morpholino-3-pyridyl]-17,17-dimethyl-8,14-dioxo-15-oxa-4-thia-9,21,27,28-tetrazapentacyclo[17.5.2.1^2,5.1^9,13.0^22,26]octacosa-1(25),2,5(28),19,22(26),23-hexaen-7-yl]carbamoyl]-2-methyl-propyl]-N-methyl-pyrrolidine-3-carboxamide] | < 0.003 | 0.848 | 0.155 | > 10 | 0.006 | 0.075
3 | CO[C@@H](C)c1ncc(N2CCN(C)CC2)cc1-c1c2c3cc(c(F)cc3n1CC(F)(F)F)-c1csc(n1)C[C@H](NC(=O)[C@H](C(C)C)N1CCC[C@@]3(CCN(C(=O)[C@H](F)Cl)C3)C1=O)C(=O)N1CCC[C@H](N1)C(=O)OCC(C)(C)C2 (single isomer, unassigned) [Example 16] | < 0.001 | 2.65 | 0.022 | > 10 | 0.001 | 0.015
4 | CO[C@@H](C)c1ncc(N2CCN(C)CC2)cc1-c1c2c3cc(c(F)cc3n1CC(F)(F)F)-c1csc(n1)C[C@H](NC(=O)[C@H](C(C)C)N1CCC[C@]3(CCN(C(=O)[C@H](F)Cl)C3)C1=O)C(=O)N1CCC[C@H](N1)C(=O)OCC(C)(C)C2 (single isomer, unassigned) [Example 18] | 0.001 | 3.7 | 0.019 | 1.66 | 0.003 | 0.018
5 | CC(C)[C@@H](C(=O)N[C@H]1Cc2cc(O)cc(c2)-c2ccc3c(C(C)(C)C#N)cn(c3c2)CC(C)(C)COC(=O)[C@@H]2CCCN(N2)C1=O)N1CCC2(CN(C(=O)CCl)C2)C1=O [RM44, reference compound] | 0.799 | 6.23 | > 10 | > 10 | 1.9 | > 10
